From US20250361230A1, “LATS Inhibitors and Uses Thereof” (The USA, as Represented by the Secretary, Dept. of Heath …, priority 2022, published 2025) come the findings set out here.

In this assay the target is T1, LATS2 (Homo sapiens, UniProt Q9NRM7).
T1 sequence (Q9NRM7 1-1088): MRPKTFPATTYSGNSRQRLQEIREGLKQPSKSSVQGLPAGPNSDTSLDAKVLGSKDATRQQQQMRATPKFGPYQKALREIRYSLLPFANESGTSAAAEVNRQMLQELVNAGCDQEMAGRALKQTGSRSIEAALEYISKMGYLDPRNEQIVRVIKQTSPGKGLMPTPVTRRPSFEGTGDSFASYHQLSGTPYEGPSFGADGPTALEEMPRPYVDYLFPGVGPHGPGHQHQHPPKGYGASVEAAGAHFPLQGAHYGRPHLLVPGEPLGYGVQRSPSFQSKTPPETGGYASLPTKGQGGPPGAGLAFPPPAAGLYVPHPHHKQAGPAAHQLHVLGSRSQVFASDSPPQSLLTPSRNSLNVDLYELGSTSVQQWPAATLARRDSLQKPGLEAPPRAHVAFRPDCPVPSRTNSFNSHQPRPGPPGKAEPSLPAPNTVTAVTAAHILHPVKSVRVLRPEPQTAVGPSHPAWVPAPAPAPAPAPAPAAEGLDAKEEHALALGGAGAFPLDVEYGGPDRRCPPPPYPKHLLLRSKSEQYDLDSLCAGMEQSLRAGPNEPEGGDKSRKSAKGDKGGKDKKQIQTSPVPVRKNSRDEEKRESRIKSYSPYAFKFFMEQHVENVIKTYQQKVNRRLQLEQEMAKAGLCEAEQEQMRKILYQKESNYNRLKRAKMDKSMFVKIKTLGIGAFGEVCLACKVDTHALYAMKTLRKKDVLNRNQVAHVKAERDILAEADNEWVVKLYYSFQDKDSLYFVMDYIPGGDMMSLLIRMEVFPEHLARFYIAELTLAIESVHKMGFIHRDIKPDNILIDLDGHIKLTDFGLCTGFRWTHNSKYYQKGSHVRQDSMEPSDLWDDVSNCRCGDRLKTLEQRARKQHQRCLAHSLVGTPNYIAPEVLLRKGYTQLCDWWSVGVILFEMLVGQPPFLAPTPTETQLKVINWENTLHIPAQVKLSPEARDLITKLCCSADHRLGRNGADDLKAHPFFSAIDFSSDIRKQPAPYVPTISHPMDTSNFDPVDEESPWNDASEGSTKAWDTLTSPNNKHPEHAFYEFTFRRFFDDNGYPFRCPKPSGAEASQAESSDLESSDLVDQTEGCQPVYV
Description: RBC HotSpot kinase assay (33P-ATP, P81 filter-binding), LATS2. The class given is biochemical. Conditions: Table 28, biochemical kinase assay; read-out: LATS2 IC50. In outline: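 Hepes pH 7.5/MgCl2/EGTA/Brij35/BSA/Na3VO4/DTT buffer, cofactors per kinase; cpd acoustically dispensed, 20 min preinc RT; start w/ 33P-ATP, 2 h RT; P81 filter readout; 10-pt singlet IC50.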
Broadly, the IC50 is the concentration that inhibits the measured activity by half. In the case of `C[C@@H]1CN(CC(N)=O)C[C@H](C)[C@@]1(O)c1c(F)cc(-c2ccnc3[nH]cc(F)c23)cc1F` [Compound 88, 2-((3R,4s,5S)-4-(2,6-difluoro-4-(3-fluoro-1H-pyrrolo[2,3-b]pyridin-4-yl)phenyl)-4-hydroxy-3,5-dimethylpiperidin-1-yl)acetamide], the IC50 was determined as 2.9 nM.
The result for `C[C@@H]1CN(C2CCNCC2)C[C@H](C)[C@@]1(O)c1c(F)cc(-c2ccnc3[nH]cc(F)c23)cc1F` [Compound 90, (3R,4s,5S)-4-(2,6-difluoro-4-(3-fluoro-1H-pyrrolo[2,3-b]pyridin-4-yl)phenyl)-3,5-dimethyl-[1,4′-bipiperidin]-4-ol] reads 4.6 nM; that for `OC1(c2ccc(-c3ccnc4[nH]cc(F)c34)cc2)CCNCC1` [Compound 110, 4-(4-(3-fluoro-1H-pyrrolo[2,3-b]pyridin-4-yl)phenyl)piperidin-4-ol], 2.9 nM.
With `OC1(c2ccc(-c3ccnc4[nH]ccc34)cc2)CCNCC1` [Compound 111, 4-(4-(1H-pyrrolo[2,3-b]pyridin-4-yl)phenyl)piperidin-4-ol], the IC50 came out at 22 nM.
The result for `Cc1cc(-c2ccnc3[nH]cc(F)c23)cc(F)c1C1(O)CC2(CN(C3COC3)C2)C1` [Compound 139, 6-(2-fluoro-4-(3-fluoro-1H-pyrrolo[2,3-b]pyridin-4-yl)-6-methylphenyl)-2-(oxetan-3-yl)-2-azaspiro[3.3]heptan-6-ol] reads 9 nM; that for `O=C([C@H]1CCCN1)N1CCC(O)(c2ccc(-c3ccnc4[nH]cc(F)c34)cc2)CC1` [Compound 142], 4.4 nM; that for `Fc1c[nH]c2nccc(-c3ccc(C4CCNCC4)cc3)c12` [Compound 169, 3-fluoro-4-(4-(piperidin-4-yl)phenyl)-1H-pyrrolo[2,3-b]pyridine], 14 nM.
`Fc1c[nH]c2nccc(-c3ccc(C4CCNCC4)c(Cl)c3)c12` [Compound 172, 4-(3-chloro-4-(piperidin-4-yl)phenyl)-3-fluoro-1H-pyrrolo[2,3-b]pyridine]: the half-maximal inhibitory concentration (IC50) is 19 nM.
The result for `Clc1c[nH]c2nccc(-c3ccc(C4CCNCC4)cc3)c12` [Compound 173, 3-chloro-4-(4-(piperidin-4-yl)phenyl)-1H-pyrrolo[2,3-b]pyridine] reads 8 nM; that for `Cc1cc(-c2ccnc3[nH]ccc23)ccc1C1CCNCC1` [Compound 177, 4-(3-methyl-4-(piperidin-4-yl)phenyl)-1H-pyrrolo[2,3-b]pyridine], 14 nM; that for `c1cc(-c2ccc(C3CC4CCC(C3)N4)cc2)c2cc[nH]c2n1` (stereo not drawn) [Compound 184, 4-(4-(8-azabicyclo[3.2.1]octan-3-yl)phenyl)-1H-pyrrolo[2,3-b]pyridine], 50 nM.
With `CC1CC(c2ccc(-c3ccnc4[nH]ccc34)cc2)CC(C)N1` (stereo not drawn) [Compound 187, 4-(4-(2,6-dimethylpiperidin-4-yl)phenyl)-1H-pyrrolo[2,3-b]pyridine], the IC50 was 62.6 nM.
To `CC1(c2ccc(-c3ccnc4[nH]ccc34)cc2)CCNCC1` [Compound 201, 4-(4-(4-methylpiperidin-4-yl)phenyl)-1H-pyrrolo[2,3-b]pyridine] belongs 43 nM; to `Cc1cc(-c2ccnc3[nH]cc(F)c23)ccc1CN` [Compound 211, (4-(3-fluoro-1H-pyrrolo[2,3-b]pyridin-4-yl)-2-methylphenyl) methanamine], 5.5 nM.
As for `NCc1ccc(-c2ccnc3[nH]cc(-c4ccccc4)c23)cc1-c1ccccc1` [Compound 219, (5-(3-phenyl-1H-pyrrolo[2,3-b]pyridin-4-yl)-[1,1′-biphenyl]-2-yl)methanamine], the IC50 is 128 nM.
To `COC(=O)c1c[nH]c2nccc(-c3ccc(CN)cc3)c12` [Compound 223, methyl 4-(4-(aminomethyl)phenyl)-1H-pyrrolo[2,3-b]pyridine-3-carboxylate] belongs 1420 nM; to `Cc1cccc(-c2c[nH]c3nccc(-c4ccc(CN)cc4)c23)c1` [Compound 230, (4-(3-(m-tolyl)-1H-pyrrolo[2,3-b]pyridin-4-yl)phenyl) methanamine], 16 nM; to `CC(C)(N)c1ccc(-c2ccnc3[nH]cc(F)c23)cc1` [Compound 238, 2-(4-(3-fluoro-1H-pyrrolo[2,3-b]pyridin-4-yl)phenyl)propan-2-amine], 1.2 nM.
Regarding `NCc1ccc(-c2ccnc3[nH]cc(-c4cccnc4)c23)cc1` [Compound 245, (4-(3-(pyridin-3-yl)-1H-pyrrolo[2,3-b]pyridin-4-yl)phenyl) methanamine], the half-maximal inhibitory concentration (IC50) was 24 nM.
For the compound `NCc1ccc(-c2ccnc3[nH]cc(-c4ccccc4)c23)cc1` [Compound 253, (4-(3-phenyl-1H-pyrrolo[2,3-b]pyridin-4-yl)phenyl) methanamine], the IC50 was found to be 5 nM.
Take `Cc1cc(-c2ccnc3[nH]cc(Cl)c23)ccc1CN` [Compound 254, (4-(3-chloro-1H-pyrrolo[2,3-b]pyridin-4-yl)-2-methylphenyl) methanamine]: the half-maximal inhibitory concentration (IC50) stood at 5.2 nM.
The result for `Cc1cc(-c2ccnc3[nH]ccc23)ccc1CN` [Compound 266, (2-methyl-4-(1H-pyrrolo[2,3-b]pyridin-4-yl)phenyl) methanamine] reads 5 nM; that for `c1cc(-c2ccc3c(c2)CCNC3)c2cc[nH]c2n1` [Compound 267, 6-(1H-pyrrolo[2,3-b]pyridin-4-yl)-1,2,3,4-tetrahydroiso-quinoline], 10 nM.
The result for `c1cc(-c2ccc(C3CCCCN3)cc2)c2cc[nH]c2n1` (stereo not drawn) [Compound 271, 4-(4-(piperidin-2-yl)phenyl)-1H-pyrrolo[2,3-b]pyridine] reads 25 nM; that for `NCc1ccc(-c2ccnc3[nH]cc(F)c23)cc1` [Compound 275, (4-(3-fluoro-1H-pyrrolo[2,3-b]pyridin-4-yl)phenyl) methanamine], 8.4 nM.
With `NCc1ccc(-c2ccnc3[nH]cc(Cl)c23)cc1` [Compound 276, (4-(3-chloro-1H-pyrrolo[2,3-b]pyridin-4-yl)phenyl) methanamine], the IC50 was determined as 5.8 nM.
The result for `NCc1ccc(-c2ccnc3[nH]ccc23)cc1C(F)(F)F` [Compound 284, (4-(1H-pyrrolo[2,3-b]pyridin-4-yl)-2-(trifluoromethyl)phenyl) methanamine] reads 45 nM; that for `NCc1ccc(-c2ccnc3[nH]ccc23)cc1` [Compound 287, (4-(1H-pyrrolo[2,3-b]pyridin-4-yl)phenyl) methanamine], 34 nM.
The result for `Cc1cc(-c2ccnc3[nH]cc(F)c23)cc(F)c1[C@@]1(O)[C@H](C)CN(C)C[C@@H]1C` [Compound 304, (3S,4s,5R)-4-(2-fluoro-4-(3-fluoro-1H-pyrrolo[2,3-b]pyridin-4-yl)-6-methylphenyl)-1,3,5-trimethylpiperidin-4-ol] reads 4 nM; that for `Cc1cc(-c2ccnc3[nH]cc(F)c23)cc(F)c1[C@@]1(O)[C@H](C)CN(C(C)C)C[C@@H]1C` [Compound 305, (3S,4s,5R)-4-(2-fluoro-4-(3-fluoro-1H-pyrrolo[2,3-b]pyridin-4-yl)-6-methylphenyl)-1-isopropyl-3,5-dimethylpiperidin-4-ol], 3.7 nM; that for `COC(=O)c1c[nH]c2nccc(-c3cc(C)c([C@@]4(O)[C@H](C)CN(C5CCS(=O)(=O)CC5)C[C@@H]4C)c(F)c3)c12` [Compound 309, methyl 4-(4-((3S,4s,5R)-1-(1,1-dioxidotetrahydro-2H-thiopyran-4-yl)-4-hydroxy-3,5-dimethylpiperidin-4-yl)-3-fluoro-5-methylphenyl)-1H-pyrrolo[2,3-b]pyridine-3-carboxylate], 3 nM.
The result for `COC(=O)c1c[nH]c2nccc(-c3cc(C)c([C@@]4(O)[C@H](C)CN(C(=O)CN)C[C@@H]4C)c(F)c3)c12` [Compound 310, methyl 4-(3-fluoro-4-((3S,4s,5R)-1-glycyl-4-hydroxy-3,5-dimethylpiperidin-4-yl)-5-methylphenyl)-1H-pyrrolo[2,3-b]pyridine-3-carboxylate] reads 2.3 nM; that for `Cc1cc(-c2ccnc3[nH]cc(F)c23)cc(F)c1[C@@]1(O)[C@H](C)CN(C(=O)[C@H](N)CO)C[C@@H]1C` [Compound 312, (R)-2-amino-1-((3S,4R,5R)-4-(2-fluoro-4-(3-fluoro-1H-pyrrolo[2,3-b]pyridin-4-yl)-6-methylphenyl)-4-hydroxy-3,5-dimethylpiperidin-1-yl)-3-hydroxypropan-1-one], 3.5 nM.
